Assay results: ChEMBL document CHEMBL1201862, “PubChem BioAssay data set” (2004)
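The compound was tested at five concentrations on cells cultured in 96-well plates, with a 48-hour exposure period. Abbreviation: GI50, concentration required for 50% inhibition of growth.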 Calls of active or inactive are those of the source. Cut-off read from the data, not from the text of the source: active = GI50 up to about 1.1 µM and inactive = higher.

How the values were obtained:
Test in all cases: NCI tumour cell line growth inhibition, 48 h
NCI-H522 = test system: NCI-H522
UO-31 = test system: UO-31
ACHN = test system: ACHN
IGROV-1 = test system: IGROV-1
LOX IMVI = test system: LOX IMVI
HCT-116 = test system: HCT-116
KM12 = test system: KM12
M14 = test system: M14
RPMI-8226 = test system: RPMI-8226
Malme-3M = test system: Malme-3M
CAKI-1 = test system: CAKI-1
HCC 2998 = test system: HCC 2998
U-251 = test system: U-251
OVCAR-3 = test system: OVCAR-3
NCI-H226 = test system: NCI-H226

Measured: GI50

O=C(O)c1ccc([N+](=O)[O-])c2c(=O)c3ccccc3[nH]c12
inactive: NCI-H522 > 100 µM | UO-31 > 100 µM | ACHN > 100 µM | IGROV-1 > 100 µM | LOX IMVI > 100 µM | HCT-116 > 100 µM | KM12 > 100 µM | M14 > 100 µM | RPMI-8226 > 100 µM | Malme-3M > 100 µM | CAKI-1 > 100 µM | HCC 2998 > 100 µM | U-251 > 100 µM

CN(CC(=O)O)S(=O)(=O)c1ccc(F)cc1
inactive: NCI-H522 > 100 µM | UO-31 > 100 µM | ACHN > 100 µM | IGROV-1 > 100 µM | LOX IMVI > 100 µM | KM12 > 100 µM | M14 > 100 µM | OVCAR-3 > 100 µM | RPMI-8226 > 100 µM | Malme-3M > 100 µM | CAKI-1 > 100 µM | HCC 2998 > 100 µM | U-251 > 100 µM

O=C(Nc1nc2ccc([N+](=O)[O-])cc2s1)C(=O)C(C1OC(=O)c2ccccc21)[N+](=O)[O-] (configuration not stated)
inactive: UO-31 20.3 µM | NCI-H226 55.8 µM | ACHN 39.3 µM | IGROV-1 42.2 µM | LOX IMVI > 100 µM | HCT-116 97.5 µM | KM12 > 100 µM | M14 > 100 µM | OVCAR-3 71 µM | RPMI-8226 56.2 µM | Malme-3M > 100 µM | CAKI-1 70.1 µM | HCC 2998 > 100 µM | U-251 82.8 µM

CCCCN1C(=O)C2c3[nH]c4ccccc4c3C3CCCCC3C2C1=O.CCCCN1C(=O)C2c3[nH]c4ccccc4c3[C@@H]3CCCCC3C2C1=O (configuration not stated)
inactive: UO-31 14.8 µM | ACHN 7.36 µM | IGROV-1 19.1 µM | LOX IMVI 10.9 µM | HCT-116 9.42 µM | M14 13.4 µM | OVCAR-3 12.4 µM | CAKI-1 6.18 µM | HCC 2998 8.85 µM | U-251 16.4 µM

COc1cc(C2C(C(=O)Nc3cc(F)c(F)cc3F)=C(C)NC(C)=C2C(=O)Nc2cc(F)c(F)cc2F)ccc1O
inactive: NCI-H522 13.3 µM | UO-31 8.04 µM | NCI-H226 23.6 µM | ACHN 18.8 µM | IGROV-1 23.1 µM | LOX IMVI 15.2 µM | KM12 13.3 µM | M14 25.2 µM | OVCAR-3 14.3 µM | RPMI-8226 16.3 µM | Malme-3M 24.7 µM | CAKI-1 12.3 µM | HCC 2998 13.9 µM | U-251 23.6 µM

COc1ccc(/C=[N+](\[O-])[C@H](COCc2ccccc2)c2ccccc2)cc1
inactive: NCI-H522 41.1 µM | UO-31 17.3 µM | ACHN 51.8 µM | IGROV-1 > 100 µM | LOX IMVI 89.9 µM | HCT-116 43.3 µM | KM12 89.1 µM | OVCAR-3 44.4 µM | RPMI-8226 15.7 µM | Malme-3M 42.1 µM | HCC 2998 > 100 µM | U-251 > 100 µM

COc1ccc2oc(-c3cc4cc(OC)ccc4o3)cc2c1
inactive: NCI-H522 > 100 µM | UO-31 > 100 µM | ACHN > 100 µM | IGROV-1 > 100 µM | LOX IMVI > 100 µM | KM12 > 100 µM | M14 > 100 µM | OVCAR-3 > 100 µM | RPMI-8226 > 100 µM | Malme-3M > 100 µM | CAKI-1 > 100 µM | HCC 2998 > 100 µM

CC(=O)OC1COC(N2C(=O)C(=O)c3cc(Br)c([N+](=O)[O-])cc32)C(OC(C)=O)C1OC(C)=O (configuration not stated)
inactive: NCI-H522 48.8 µM | NCI-H226 > 100 µM | ACHN > 100 µM | IGROV-1 > 100 µM | LOX IMVI 30.2 µM | HCT-116 77.3 µM | KM12 > 100 µM | M14 > 100 µM | OVCAR-3 48.2 µM | RPMI-8226 > 100 µM | Malme-3M 71 µM | CAKI-1 > 100 µM | HCC 2998 > 100 µM | U-251 > 100 µM

CCN(CC)c1ccc(/N=N/c2ccc([N+](=O)[O-])cc2OC(=O)/C=C/c2ccccc2)c(OC(=O)/C=C/c2ccccc2)c1
inactive: NCI-H522 23.2 µM | UO-31 4.45 µM | NCI-H226 1.44 µM | ACHN 2.1 µM | IGROV-1 18.5 µM | LOX IMVI 4.74 µM | HCT-116 3.55 µM | KM12 3.83 µM | M14 12.7 µM | OVCAR-3 3.18 µM | Malme-3M 6.44 µM | CAKI-1 84.1 µM | HCC 2998 12.7 µM | U-251 5.43 µM

O=c1cccccc1NCCCNc1cccccc1=O
inactive: NCI-H522 > 100 µM | UO-31 > 100 µM | NCI-H226 > 100 µM | ACHN > 100 µM | IGROV-1 > 100 µM | LOX IMVI > 100 µM | HCT-116 > 100 µM | KM12 > 100 µM | M14 > 100 µM | OVCAR-3 > 100 µM | RPMI-8226 > 100 µM | Malme-3M 11.9 µM | CAKI-1 > 100 µM | U-251 > 100 µM

CCc1ccccc1NC(=O)/C(CC(=O)c1c(C)[n+]([O-])c2ccccc2[n+]1[O-])=N\NS(=O)(=O)c1ccc(C)cc1
inactive: NCI-H522 16.1 µM | UO-31 > 100 µM | NCI-H226 > 100 µM | ACHN 57 µM | IGROV-1 26.5 µM | HCT-116 16.8 µM | KM12 36.9 µM | M14 32.8 µM | OVCAR-3 12.1 µM | RPMI-8226 12.2 µM | Malme-3M 57.4 µM | HCC 2998 47.1 µM | U-251 27 µM

CC(=O)OC(=O)O/C=C\CCl
inactive: NCI-H522 13.7 µM | UO-31 > 100 µM | NCI-H226 > 100 µM | ACHN > 100 µM | IGROV-1 > 100 µM | HCT-116 > 100 µM | KM12 > 100 µM | M14 > 100 µM | OVCAR-3 > 100 µM | RPMI-8226 > 100 µM | Malme-3M > 100 µM | CAKI-1 > 100 µM | HCC 2998 > 100 µM | U-251 > 100 µM

Cc1ccc(NC(=O)CCc2nnc3s/c(=C\c4cccc([N+](=O)[O-])c4)c(=O)n23)cc1
inactive: NCI-H522 52.6 µM | UO-31 > 100 µM | NCI-H226 > 100 µM | ACHN 84.7 µM | IGROV-1 > 100 µM | LOX IMVI 48.8 µM | HCT-116 > 100 µM | KM12 > 100 µM | M14 > 100 µM | OVCAR-3 > 100 µM | RPMI-8226 > 100 µM | Malme-3M > 100 µM | CAKI-1 > 100 µM | HCC 2998 > 100 µM | U-251 47.9 µM

C[n+]1cccc(NC(=O)c2ccc(NC(=O)C34CCC(C(=O)Nc5ccc(C(=O)Nc6ccc[n+](C)c6)cc5)(CC3)CC4)cc2)c1
inactive: NCI-H522 5.42 µM | NCI-H226 > 100 µM | ACHN 17.9 µM | IGROV-1 13.5 µM | LOX IMVI 38.5 µM | HCT-116 33.5 µM | KM12 1.92 µM | M14 > 100 µM | RPMI-8226 3.92 µM | U-251 27.9 µM
